Read-outs that look alike come from different tables or passages of the source.
Columns and labels:
[1] = system: L. major; experiment: ChEMBL dataset of pIC50 values against L. major used for the RF model (Table S1); format: cell-based, Leishmania major; note: call rule not given here
[2] = system: L. major; design: method as in ChEMBL; conditions: ref ChEMBL, cited from earlier work
[3] = Active/Inactive class assigned to ChemBL structures for Random forest model construction (Table S1)
[4] = ChemBL structures with pIC50 values used for Random forest model construction (Table S1)
[5] = Active/Inactive class assigned to the ChEMBL pIC50 value for Random forest model construction, ref ChEMBL
[6] = ChemBL structures with pIC50 values used for Random forest model construction, L. major

With `CCOc1ccc(/N=C/c2cn(C)c3ccccc23)cc1` [CHEMBL2071554] as the molecule, how does the Outcome [1, 3] read?
The Outcome was “Active”.

What about the “pIC50 Value” [2, 4] of the same molecule?
Its value is 5.50.

With `CSc1cccc(Nc2ncnc3ccc([N+](=O)[O-])cc23)c1` [CHEMBL3760067] as the molecule, how does the Outcome [1, 5] read?
The Outcome was “Inactive”.

And the “pIC50 Value” [2, 6]?
The value was 4.70.

With `Clc1ccc(C2=NN3C(c4ccccc4)=NNC3S2)c(Cl)c1` (centres unmarked) [CHEMBL1256801] as the molecule, how does the Outcome [1, 5] read?
Its Outcome is “Inactive”.

What about the “pIC50 Value” [2, 6] of the same molecule?
Its value is 4.00.

With `Oc1ccc(-c2c(-c3ccccc3)nc3ccccn23)cc1` [CHEMBL2151859] as the molecule, how does the Outcome [1, 5] read?
Its Outcome is “Inactive”.

What about the “pIC50 Value” [2, 6] of the same molecule?
Its value is 4.40.

With `CCCCOc1ccc(-c2nc3cc([N+](=O)[O-])ccc3[nH]2)cc1` [CHEMBL2297903] as the molecule, how does the Outcome [1, 3] read?
The Outcome was “Active”.

What about the “pIC50 Value” [2, 4] of the same molecule?
Its value is 5.61.

Which Outcome [1, 3] does the source give for `O=C(/C=C/c1ccc(-n2ccnc2)cc1)c1ccc(Cl)cc1` [CHEMBL569356] here?
Its Outcome is “Active”.

And the “pIC50 Value” [2, 4]?
The value was 5.53.

With `CC[C@H](CO)Nc1nc(NCc2cccc(OC)c2O)c2ncn(C(C)C)c2n1` [CHEMBL2349189] as the molecule, how does the Outcome [1, 5] read?
The Outcome was “Inactive”.

And the “pIC50 Value” [2, 6]?
Its value is 4.01.

With `CC(=O)C1=C(CNc2ccc(C3=NNC(c4ccc(O)cc4)C3)cc2)N(C)C(=O)NC1c1ccccc1` (centres unmarked) [CHEMBL3786468] as the molecule, how does the Outcome [1, 3] read?
The Outcome was “Active”.

What about the “pIC50 Value” [2, 4] of the same molecule?
The value was 6.02.

With `CC1=N[C@H](C)Cc2c(-c3ccc(Cl)cc3)ccc(O)c21` [CHEMBL1275824] as the molecule, how does the Outcome [1, 5] read?
Its Outcome is “Inactive”.

What about the “pIC50 Value” [2, 6] of the same molecule?
Its value is 4.00.

Which Outcome [1, 3] does the source give for `COc1ccc(/C=C/C(=O)c2ccccc2O)c(OC)c1` [CHEMBL143265] here?
Its Outcome is “Active”.

What about the “pIC50 Value” [2, 4] of the same molecule?
The value was 5.34.

Which results are given for `O=C(/C=C/c1ccc(-n2ccnc2)cc1)c1ccccc1F` [CHEMBL571071]?
Outcome [1, 3]: Active; pIC50 Value [2, 4]: 5.47

Which results are given for `COc1cc(OC)c2c(C)[n+](-c3ccc(OC(C)=O)cc3)c(C)cc2c1.F[B-](F)(F)F` [CHEMBL480761]?
Outcome [1, 5]: Inactive; pIC50 Value [2, 6]: 4.00

For `O=C(/C=C/c1ccccc1Br)C1=Cc2cc(Cl)ccc2OC1` [CHEMBL1094316], which Outcome [1, 3] is on record?
The Outcome was “Active”.

And the “pIC50 Value” [2, 4]?
The value was 5.88.

Which Outcome [1, 3] does the source give for `Cc1ccc2cc(C3CC(c4cc(Cl)sc4Cl)=NN3)c(Cl)nc2c1` (centres unmarked) [CHEMBL2236142] here?
Its Outcome is “Active”.

What about the “pIC50 Value” [2, 4] of the same molecule?
The value was 5.75.

For `C[C@@H](c1ncncc1F)[C@](O)(Cn1cncn1)c1ccc(F)cc1F` [CHEMBL638], which Outcome [1, 5] is on record?
The Outcome was “Active”.

And the “pIC50 Value” [2, 6]?
The value was 5.21.

Which Outcome [1, 3] does the source give for `Cc1ccsc1C1=NNC(c2cc3cccc(C)c3nc2Cl)C1` (centres unmarked) [CHEMBL2235718] here?
Its Outcome is “Active”.

What about the “pIC50 Value” [2, 4] of the same molecule?
The value was 5.64.

For `O=[N+]([O-])c1ccc(-c2nc3ccc([N+](=O)[O-])cc3[nH]2)cc1` [CHEMBL1483847], which Outcome [1, 3] is on record?
The Outcome was “Active”.

And the “pIC50 Value” [2, 4]?
The value was 5.58.

With `O=C(CCl)N1c2ccccc2Oc2ccc(Cl)cc21` [CHEMBL3758242] as the molecule, how does the Outcome [1, 5] read?
The Outcome was “Active”.

What about the “pIC50 Value” [2, 6] of the same molecule?
The value was 5.12.

Which Outcome [1, 5] does the source give for `COc1ccccc1-c1nnc(-c2ccc(C(=O)N/N=C/c3cccc(F)c3)cc2)o1` [CHEMBL4072092] here?
The Outcome was “Active”.

What about the “pIC50 Value” [2, 6] of the same molecule?
The value was 5.20.

What does the source list for `CN1CCN(c2ccnc3cc(Cl)ccc23)CC1` [CHEMBL1255667]?
Outcome [1, 5]: Inactive; pIC50 Value [2, 6]: 4.00

What does the source list for `COc1cccc(-c2nc3ccccc3[nH]2)c1` [CHEMBL2297908]?
Outcome [1, 3]: Active; pIC50 Value [2, 4]: 5.46

With `CC(=O)C1=C(C)NC(=S)NC1c1ccccc1` (centres unmarked) [CHEMBL2359517] as the molecule, how does the Outcome [1, 3] read?
The Outcome was “Active”.

And the “pIC50 Value” [2, 4]?
Its value is 5.50.

For `NP(=O)(OCc1ccccc1[N+](=O)[O-])N(CCCl)CCCl` (centres unmarked) [CHEMBL1256928], which Outcome [1, 5] is on record?
The Outcome was “Inactive”.

And the “pIC50 Value” [2, 6]?
Its value is 4.52.

What does the source list for `COc1cc(OCC=C(C)C)ccc1C(=O)/C=C/c1ccc([N+](=O)[O-])cc1` [CHEMBL4161584]?
Outcome [1, 3]: Active; pIC50 Value [2, 4]: 5.48

With `COc1c(C)cc(O)c2c(OC)cccc12` [CHEMBL2071224] as the molecule, how does the Outcome [1, 5] read?
Its Outcome is “Inactive”.

And the “pIC50 Value” [2, 6]?
The value was 4.00.

With `Fc1ccc(-c2nc3ccccn3c2-c2cccnc2)cc1` [CHEMBL2151875] as the molecule, how does the Outcome [1, 5] read?
Its Outcome is “Inactive”.

And the “pIC50 Value” [2, 6]?
Its value is 4.42.

Which Outcome [1, 5] does the source give for `O=C(c1ccccc1)N1CCN(c2nnc(-c3ccc([N+](=O)[O-])o3)s2)CC1` [CHEMBL195349] here?
Its Outcome is “Inactive”.

And the “pIC50 Value” [2, 6]?
The value was 4.93.

Which Outcome [1, 3] does the source give for `Cn1cc(/C=N/Cc2ccccc2)c2ccccc21` [CHEMBL2071559] here?
Its Outcome is “Active”.

And the “pIC50 Value” [2, 4]?
The value was 5.54.

What does the source list for `CNc1ccc(Nc2c3ccccc3nc3ccccc23)cc1OC` [CHEMBL92157]?
Outcome [1, 3]: Active; pIC50 Value [2, 4]: 5.44

Which Outcome [1, 3] does the source give for `CN(C)Cc1ccc(Nc2c3ccc(N)cc3nc3cc(N)ccc23)cc1` [CHEMBL34804] here?
The Outcome was “Active”.

What about the “pIC50 Value” [2, 4] of the same molecule?
Its value is 5.30.

With `O=C(/C=C/c1ccc(-n2ccnc2)cc1)c1cc(Cl)ccc1Cl` [CHEMBL570739] as the molecule, how does the Outcome [1, 3] read?
Its Outcome is “Active”.

What about the “pIC50 Value” [2, 4] of the same molecule?
Its value is 5.54.

For `O=[N+]([O-])c1ccc(-c2nnc(N3CCN(c4ccccc4)CC3)s2)s1` [CHEMBL382933], which Outcome [1, 5] is on record?
The Outcome was “Inactive”.

And the “pIC50 Value” [2, 6]?
The value was 3.98.

What does the source list for `Cc1ccc2cc(C3CC(c4ccc(Br)s4)=NN3)c(Cl)nc2c1` (centres unmarked) [CHEMBL2235715]?
Outcome [1, 3]: Active; pIC50 Value [2, 4]: 5.64

Which results are given for `COc1ccccc1-c1nnc(-c2ccc(C(=O)N/N=C/c3cccc(C)c3)cc2)o1` [CHEMBL4097073]?
Outcome [1, 5]: Inactive; pIC50 Value [2, 6]: 4.40

What does the source list for `COc1cc(OC)c2c(C)[n+](-c3ccc(C)cc3C)c(C)cc2c1.F[B-](F)(F)F` [CHEMBL482395]?
Outcome [1, 3]: Active; pIC50 Value [2, 4]: 5.48

For `COc1ccc(CNC(=N)c2ccc(N3CCN(c4nnc(-c5ccc([N+](=O)[O-])o5)s4)CC3)cc2)cc1.Cl` [CHEMBL1783207], which Outcome [1, 5] is on record?
Its Outcome is “Inactive”.

What about the “pIC50 Value” [2, 6] of the same molecule?
The value was 4.10.

With `Cc1cccc2cc(/C=C/C(=O)c3ccc(Cl)s3)c(Cl)nc12` [CHEMBL1940867] as the molecule, how does the Outcome [1, 3] read?
Its Outcome is “Active”.

And the “pIC50 Value” [2, 4]?
Its value is 5.73.

Which Outcome [1, 5] does the source give for `O=[N+]([O-])c1ccc(-c2nnc(NCc3cn(Cc4ccc(Cl)c(Cl)c4)nn3)s2)o1` [CHEMBL1951535] here?
Its Outcome is “Inactive”.

What about the “pIC50 Value” [2, 6] of the same molecule?
The value was 3.88.

What does the source list for `Cn1c([N+](=O)[O-])cnc1-c1nnc(N2CCN(C(=O)c3cccc(Cl)c3)CC2)s1` [CHEMBL482665]?
Outcome [1, 5]: Inactive; pIC50 Value [2, 6]: 4.75

For `NC(=O)c1ccc(-c2c(-c3ccccc3)nc3ccccn23)cc1` [CHEMBL2151865], which Outcome [1, 5] is on record?
The Outcome was “Inactive”.

What about the “pIC50 Value” [2, 6] of the same molecule?
Its value is 4.57.

With `O=C(c1cccs1)N1CCN(c2nnc(-c3ccc([N+](=O)[O-])s3)s2)CC1` [CHEMBL464864] as the molecule, how does the Outcome [1, 5] read?
The Outcome was “Inactive”.

And the “pIC50 Value” [2, 6]?
Its value is 4.55.

Which results are given for `Clc1cccc(-c2c(-c3ccccc3)nc3cnccn23)c1` [CHEMBL3634354]?
Outcome [1, 5]: Inactive; pIC50 Value [2, 6]: 4.84

With `O=C(C(Cl)CCl)N1c2ccccc2Oc2ccccc21` (centres unmarked) [CHEMBL3758248] as the molecule, how does the Outcome [1, 5] read?
The Outcome was “Active”.

What about the “pIC50 Value” [2, 6] of the same molecule?
Its value is 5.02.

Which Outcome [1, 5] does the source give for `COc1ccccc1-c1nnc(-c2ccc(C(=O)N/N=C/c3cccc(O)c3)cc2)o1` [CHEMBL4103014] here?
The Outcome was “Inactive”.

And the “pIC50 Value” [2, 6]?
The value was 4.74.

With `COc1ccc(/C=N/NC(=O)c2ccc(-c3nnc(-c4ccccc4OC)o3)cc2)cc1O` [CHEMBL4069376] as the molecule, how does the Outcome [1, 5] read?
Its Outcome is “Active”.

And the “pIC50 Value” [2, 6]?
Its value is 5.19.

Which Outcome [1, 3] does the source give for `CN(C)c1ccc2c(Nc3ccccc3)c3ccc(N(C)C)cc3nc2c1` [CHEMBL37644] here?
Its Outcome is “Active”.

What about the “pIC50 Value” [2, 4] of the same molecule?
The value was 7.52.

Which results are given for `COc1cc(C2NC(=O)NC(C)=C2C(C)=O)ccc1O` (centres unmarked) [CHEMBL1342564]?
Outcome [1, 3]: Active; pIC50 Value [2, 4]: 5.59

Which Outcome [1, 5] does the source give for `CN(C)c1nccn2c(I)c(-c3ccccc3)nc12` [CHEMBL3634358] here?
The Outcome was “Active”.

And the “pIC50 Value” [2, 6]?
Its value is 5.17.

For `COC(=O)c1c(O)c(C#N)c2n(c1=O)CCc1cc(OC)c(OC)cc1-2` [CHEMBL1256930], which Outcome [1, 5] is on record?
The Outcome was “Inactive”.

What about the “pIC50 Value” [2, 6] of the same molecule?
Its value is 4.28.

— PMC8196580, “Identification of Kaurane-Type Diterpenes as Inhibitors of Leishmania Pteridine Reductase I” (Molecules, 2021)
